Experiments:
Type in all cases: functional
[1] = test system: IGROV-1; experiment: Cytotoxicity against human IGROV1 cells assessed as cell growth at 10^-5 M after 48 hrs by SRB assay; conditions: IGROV-1, 48 h, read-out: Activity
[2] = test system: SNB-19; experiment: Cytotoxicity against human SNB19 cells assessed as cell growth at 10^-8 M after 48 hrs by SRB assay; conditions: SNB-19, 48 h, read-out: Activity
[3] = test system: HOP-62; experiment: Cytotoxicity against human HOP62 cells assessed as cell growth at 10^-7 M after 48 hrs by SRB assay; conditions: HOP-62, 48 h, read-out: Activity
[4] = test system: OVCAR-8; experiment: Cytotoxicity against human OVCAR8 cells assessed as cell growth at 10^-5 M after 48 hrs by SRB assay; conditions: OVCAR-8, 48 h, read-out: Activity
[5] = test system: SF-539; experiment: Cytotoxicity against human SF539 cells assessed as cell growth at 10^-5 M after 48 hrs by SRB assay; conditions: SF-539, 48 h, read-out: Activity
[6] = test system: CCRF-CEM; experiment: Cytotoxicity against human CCRF-CEM cells assessed as cell growth at 10^-5 M after 48 hrs by SRB assay; conditions: read-out: Activity
[7] = test system: U-251; experiment: Cytotoxicity against human U251 cells assessed as cell growth at 10^-5 M after 48 hrs by SRB assay; conditions: U-251, 48 h, read-out: Activity
[8] = test system: PC-3; experiment: Cytotoxicity against human PC3 cells assessed as cell growth at 10^-4 M after 48 hrs by SRB assay; conditions: PC-3, 48 h, read-out: Activity
[9] = Cytotoxicity against human OVCAR5 cells assessed as cell growth at 10^-5 M after 48 hrs by SRB assay; conditions: OVCAR-5, 48 h, read-out: Activity
[10] = test system: SK-OV-3; experiment: Cytotoxicity against human SKOV3 cells assessed as cell growth at 10^-4 M after 48 hrs by SRB assay; conditions: SK-OV-3, 48 h, read-out: Activity
[11] = test system: A549; experiment: Cytotoxicity against human A549 cells assessed as cell growth at 10^-5 M after 48 hrs by SRB assay; conditions: A549, 48 h, read-out: Activity
[12] = test system: SNB-75; experiment: Cytotoxicity against human SNB75 cells assessed as cell growth at 10^-5 M after 48 hrs by SRB assay; conditions: SNB-75, 48 h, read-out: Activity
[13] = test system: SK-OV-3; experiment: Cytotoxicity against human SKOV3 cells assessed as cell growth at 10^-5 M after 48 hrs by SRB assay; conditions: SK-OV-3, 48 h, read-out: Activity
[14] = test system: MOLT-4; experiment: Cytotoxicity against human MOLT4 cells assessed as cell growth at 10^-5 M after 48 hrs by SRB assay; conditions: MOLT-4, 48 h, read-out: Activity
[15] = test system: M14; experiment: Cytotoxicity against human M14 cells assessed as cell growth at 10^-5 M after 48 hrs by SRB assay; conditions: M14, 48 h, read-out: Activity
[16] = test system: HL-60(TB); experiment: Cytotoxicity against human HL-60(TB) cells assessed as cell growth at 10^-5 M after 48 hrs by SRB assay; conditions: HL-60, 48 h, read-out: Activity
[17] = test system: SK-MEL-28; experiment: Cytotoxicity against human SK-MEL-28 cells assessed as cell growth at 10^-5 M after 48 hrs by SRB assay; conditions: SK-MEL-28, 48 h, read-out: Activity
[18] = test system: MCF7; experiment: Cytotoxicity against human MCF7 cells assessed as cell growth at 10^-6 M after 48 hrs by SRB assay; conditions: MCF7, 48 h, read-out: Activity
[19] = test system: HCT-15; experiment: Cytotoxicity against human HCT15 cells assessed as cell growth at 10^-5 M after 48 hrs by SRB assay; conditions: HCT-15, 48 h, read-out: Activity
[20] = test system: TK-10; experiment: Cytotoxicity against human TK10 cells assessed as cell growth at 10^-7 M after 48 hrs by SRB assay; conditions: TK-10, 48 h, read-out: Activity
[21] = test system: BT-549; experiment: Cytotoxicity against human BT549 cells assessed as cell growth at 10^-8 M after 48 hrs by SRB assay; conditions: BT-549, 48 h, read-out: Activity
[22] = test system: SR; experiment: Cytotoxicity against human SR cells assessed as cell growth at 10^-7 M after 48 hrs by SRB assay; conditions: read-out: Activity
[23] = test system: CAKI-1; experiment: Cytotoxicity against human Caki1 cells assessed as cell growth at 10^-5 M after 48 hrs by SRB assay; conditions: CAKI-1, 48 h, read-out: Activity
[24] = test system: DU-145; experiment: Cytotoxicity against human DU145 cells assessed as cell growth at 10^-7 M after 48 hrs by SRB assay; conditions: DU-145, 48 h, read-out: Activity
[25] = test system: MDA-MB-468; experiment: Cytotoxicity against human MDA-MB-468 cells assessed as cell growth at 10^-6 M after 48 hrs by SRB assay; conditions: MDA-MB-468, 48 h, read-out: Activity
[26] = test system: SN12C; experiment: Cytotoxicity against human SN12C cells assessed as cell growth at 10^-6 M after 48 hrs by SRB assay; conditions: read-out: Activity
[27] = Cytotoxicity against human UO31 cells assessed as cell growth at 10^-5 M after 48 hrs by SRB assay; conditions: UO-31, 48 h, read-out: Activity
[28] = test system: T47D; experiment: Cytotoxicity against human T47D cells assessed as cell growth at 10^-5 M after 48 hrs by SRB assay; conditions: read-out: Activity
[29] = test system: NCI-H460; experiment: Cytotoxicity against human NCI-H460 cells assessed as cell growth at 10^-5 M after 48 hrs by SRB assay; conditions: NCI-H460, 48 h, read-out: Activity
[30] = test system: PC-3; experiment: Cytotoxicity against human PC3 cells assessed as cell growth at 10^-5 M after 48 hrs by SRB assay; conditions: PC-3, 48 h, read-out: Activity
[31] = test system: SR; experiment: Cytotoxicity against human SR cells assessed as cell growth at 10^-5 M after 48 hrs by SRB assay; conditions: read-out: Activity
[32] = test system: T47D; experiment: Cytotoxicity against human T47D cells assessed as cell growth at 10^-6 M after 48 hrs by SRB assay; conditions: read-out: Activity
[33] = test system: MCF7; experiment: Cytotoxicity against human MCF7 cells assessed as cell growth at 10^-7 M after 48 hrs by SRB assay; conditions: MCF7, 48 h, read-out: Activity
[34] = test system: K562; experiment: Cytotoxicity against human K562 cells assessed as cell growth at 10^-5 M after 48 hrs by SRB assay; conditions: K562, 48 h, read-out: Activity
[35] = test system: 786-0; experiment: Cytotoxicity against human 786-0 cells assessed as cell growth at 10^-4 M after 48 hrs by SRB assay; conditions: 786-0, 48 h, read-out: Activity
[36] = test system: SK-MEL-5; experiment: Cytotoxicity against human SK-MEL-5 cells assessed as cell growth at 10^-5 M after 48 hrs by SRB assay; conditions: SK-MEL-5, 48 h, read-out: Activity
[37] = test system: UACC-62; experiment: Cytotoxicity against human UACC62 cells assessed as cell growth at 10^-4 M after 48 hrs by SRB assay; conditions: UACC-62, 48 h, read-out: Activity
[38] = test system: HCC 2998; experiment: Cytotoxicity against human HCC2998 cells assessed as cell growth at 10^-6 M after 48 hrs by SRB assay; conditions: HCC 2998, 48 h, read-out: Activity

C=CCn1c(C)nc2cc(Nc3nc(Nc4ccc5nc(C)n(CC=C)c5c4)c4ccccc4n3)ccc21 gave a growth at 10 µM [1] of -93.8%, a growth at 0.01 µM [2] of 91% and a growth at 0.1 µM [3] of 99%. It also gave a growth at 10 µM [4] of -40.9%, a growth at 10 µM [5] of -100% and a growth at 10 µM [6] of -29%. It also gave a growth at 10 µM [7] of -90.7%, a growth at 100 µM [8] of -41% and a growth at 10 µM [9] of -98%. It also gave a growth at 100 µM [10] of -29%, a growth at 10 µM [11] of -67.1% and a growth at 10 µM [12] of -96.7%. For the same compound, the growth at 10 µM [13] was -95.7%, the growth at 10 µM [14] was -29% and the growth at 10 µM [15] was -88%. The growth at 10 µM [16] was -70%, the growth at 10 µM [17] was -88% and the growth at 1 µM [18] was -63%. For the same compound, the growth at 10 µM [19] was -78%, the growth at 0.1 µM [20] was 100% and the growth at 0.01 µM [21] was 100%. The growth at 0.1 µM [22] was 89%, the growth at 10 µM [23] was -95% and the growth at 0.1 µM [24] was 99%. For the same compound, the growth at 1 µM [25] was -28%, the growth at 1 µM [26] was 65% and the growth at 10 µM [27] was -99%. For the same compound, the growth at 10 µM [28] was -60.4%, the growth at 10 µM [29] was -84.2% and the growth at 10 µM [30] was -100%. The growth at 10 µM [31] was -44.2%, the growth at 1 µM [32] was -4% and the growth at 0.1 µM [33] was 103%. For the same compound, the growth at 10 µM [34] was -67%, the growth at 100 µM [35] was -21% and the growth at 10 µM [36] was -95.2%. For the same compound, the growth at 100 µM [37] was -47% and the growth at 1 µM [38] was 63%.
With C=CCn1c(C)nc2ccc(Nc3nc(Nc4ccc(F)cc4)nc4ccccc34)cc21 the growth at 10 µM [1] was 39%, the growth at 0.01 µM [2] was 95% and the growth at 0.1 µM [3] was 100%. For the same compound, the growth at 10 µM [4] was 4%, the growth at 10 µM [5] was 64% and the growth at 10 µM [6] was 2%. For the same compound, the growth at 10 µM [7] was 17%, the growth at 100 µM [8] was -79% and the growth at 10 µM [9] was 59%. For the same compound, the growth at 100 µM [10] was -37%, the growth at 10 µM [11] was 26% and the growth at 10 µM [12] was -68%. For the same compound, the growth at 10 µM [13] was -74%, the growth at 10 µM [14] was -18% and the growth at 10 µM [15] was 8%. For the same compound, the growth at 10 µM [16] was 26%, the growth at 10 µM [17] was -91% and the growth at 1 µM [18] was 73%. For the same compound, the growth at 10 µM [19] was 1%, the growth at 0.1 µM [20] was 104% and the growth at 0.01 µM [21] was 88%. For the same compound, the growth at 0.1 µM [22] was 98%, the growth at 10 µM [23] was 42% and the growth at 0.1 µM [24] was 98%. It also gave a growth at 1 µM [25] of 64%, a growth at 1 µM [26] of 81% and a growth at 10 µM [27] of 33%. For the same compound, the growth at 10 µM [28] was -47%, the growth at 10 µM [29] was 11% and the growth at 10 µM [30] was 16%. It also gave a growth at 10 µM [31] of -27%, a growth at 1 µM [32] of 79% and a growth at 0.1 µM [33] of 87%. It also gave a growth at 10 µM [34] of 3%, a growth at 100 µM [35] of -71% and a growth at 10 µM [36] of -100%. For the same compound, the growth at 100 µM [37] was -70% and the growth at 1 µM [38] was 98%.
With C=CCn1c(C)nc2ccc(Nc3nc(Nc4ccc5nc(C)n(CC=C)c5c4)c4ccccc4n3)cc21 the growth at 10 µM [1] was -87%, the growth at 0.01 µM [2] was 92% and the growth at 0.1 µM [3] was 96%. The growth at 10 µM [4] was -76%, the growth at 10 µM [5] was -96% and the growth at 10 µM [6] was -20.8%. For the same compound, the growth at 10 µM [7] was -100%, the growth at 100 µM [8] was -46% and the growth at 10 µM [9] was -98%. The growth at 100 µM [10] was -54%, the growth at 10 µM [11] was -90% and the growth at 10 µM [12] was -95.2%. It also gave a growth at 10 µM [13] of -100%, a growth at 10 µM [14] of -45.5% and a growth at 10 µM [15] of -95%. For the same compound, the growth at 10 µM [16] was -71%, the growth at 10 µM [17] was -96% and the growth at 1 µM [18] was 85%. It also gave a growth at 10 µM [19] of -74%, a growth at 0.1 µM [20] of 99% and a growth at 0.01 µM [21] of 99%. The growth at 0.1 µM [22] was 93%, the growth at 10 µM [23] was -81% and the growth at 0.1 µM [24] was 100%. It also gave a growth at 1 µM [25] of 64%, a growth at 1 µM [26] of 90% and a growth at 10 µM [27] of -91.4%. For the same compound, the growth at 10 µM [28] was -91%, the growth at 10 µM [29] was -74% and the growth at 10 µM [30] was -82%. For the same compound, the growth at 10 µM [31] was -57.2%, the growth at 1 µM [32] was 80% and the growth at 0.1 µM [33] was 91%. It also gave a growth at 10 µM [34] of -49%, a growth at 100 µM [35] of -18% and a growth at 10 µM [36] of -98%. For the same compound, the growth at 100 µM [37] was -65% and the growth at 1 µM [38] was 96%.

— ChEMBL document CHEMBL3112450, “Synthesis and in vitro antitumor evaluation of primary amine substituted quinazoline linked benzimidazole” (Bioorg Med Chem Lett, 2014)
